One molecule from patent EP2455756A1, “Cell-based screening assay for inhibitors of NET formation” (Max-Planck-Gesellschaft zur Förderung der Wissenschaften …, priority 2010, dated 2012) can be followed below.

In assay [1] the test system is neutrophils. Kind of assay: Nuclear area and nuclear morphology (perimeter vs. Heywood circularity factor) of activated neutrophils, Sytox Green staining, automated microscopy. The format is cell-based, Human. The method, then:
During NET formation there are discrete changes in nuclear size and shape. According to the invention four distinct nuclear morphologies were defined (Fig. 1) (i) lobulated, (ii) delobulated, (iii) diffused NETs and (iv) spread NETs. […] The nuclear morphology, i.e. the morphology of the nuclear DNA was analyzed in more detail by plotting the perimeter vs. the Heywood circularity factor.
In contrast, most nuclei of neutrophils activated for 240 min, had diffused nuclei, or spread NETs that could be measured by their large perimeter and low Heywood circularity factor (Fig. 3b).
For nuclear size and shape, neutrophils were activated with PMA for 240 min, fixed with PFA (2%), permeabilized with Triton X100 (0.1%) and stained with Sytox Green. The four distinct nuclear morphologies during the progression to NET formation are lobulated, delobulated or diffused NETs and spread NETs (Fig.1). Bar=10 µm
Neutrophils were activated with PMA (40nM). Fifteen min after activation the nuclei were homogenous and smaller than 100 µm^2 in area while the nuclei of activated neutrophils were heteregenous and between 150 and more than 350 µm^2 (Figs. 3). Each dot in Figs. 3 (Dot plot of nuclei analyzed for perimeter vs. Heywood circularity factor) represents a nucleus. Gates were set to distinguish between lobulated, delobulated, diffused NETs and spread NETs.
In Fig. 3a fifteen min after activation, more than 95% of the nuclei were either lobulated or delobulated. […] The images were generated by an automated microscopy system and analyzed by image analysis software Scan ^R.

The test system of assay [2] is neutrophils. Kind of assay: Quantification of cell viability with Sytox Green, fluorometer. It is filed as cell-based, Human. To be noted: PMA (40 nM) for 240 min, Sytox Green (2µM). The method, then:
Neutrophils were activated with PMA (40 nM) for 15 min and 240 min, stained with the vital dye Sytox Green (2µM) and analyzed with a fluorometer. […] Different numbers of neutrophils per well were plated and activated with PMA for 240 min or incubated with the non ionic detergent NP-40.

Structures are written as SMILES. “Also recorded” adds a separate entry of the source.

On to `CCCCCCCCCCCCCC(=O)O[C@@H]1[C@@H](C)[C@@]2(O)[C@@H](C=C(CO)C[C@]3(O)C(=O)C(C)=C[C@@H]23)[C@@H]2C(C)(C)[C@]12OC(C)=O` [PMA, phorbol-12-myristate-13-acetate], for which the “nuclei either diffused or already made NETs” value with neutrophils [1] (240 min after activation with PMA (40nM)) was “more than 95%”. The “nuclei either lobulated or delobulated” value in the assay on neutrophils [1] (fifteen min after activation with PMA (40nM)) is reported as “more than 95%”. In addition, the “nuclear area (mean)” value in the assay with neutrophils [1] (neutrophils activated with PMA (40 nM) for 240 min, SD: 109µm^2, n: 2000) worked out at 244 µm^2. In the assay on neutrophils [2], the “cell death (Sytox Green fluorescence)” value is recorded as “fluorescent, indicating cell death; also recorded: most cells die after activation”.
